In brackets after ≈: the same amount, converted by molar mass.

Broadly, the pKa is the negative logarithm of the acid dissociation constant.

In data set [1] the test system is Shigella sp. In words: in vitro antibiotic activity by the Gradient Plate method, Shigella. Format: cell-based. The settings on record: read-out: Minimum Inhibitory Concentration vs. Shigella sp. On the procedure: (§1) The antibiotic activity for these compounds is illustrated by the activity data in the following Table II. In the Table, the compounds designated by the groups R, R1 and R2 have reference to the following formula I [drawing 35] and the in vitro activity was determined by the Gradient Plate method.

For data set [2], the system named is Escherichia coli. In words: in vitro antibiotic activity by the Gradient Plate method, E. coli. Conditions: read-out: Minimum Inhibitory Concentration vs. Escherichia coli. Format: cell-based. Here is the method: as §1
In data set [3] the test system is Klebsiella pneumoniae. Briefly: in vitro antibiotic activity by the Gradient Plate method, Klebsiella. Format: cell-based. The settings on record: read-out: Minimum Inhibitory Concentration vs. Klebsiella pneumoniae. Here is the method:
as §1

For data set [4], the system named is Enterobacter aerogenes. In words: in vitro antibiotic activity by the Gradient Plate method, Enterobacter. The settings on record: Klebsiella aerogenes, read-out: Minimum Inhibitory Concentration vs. Enterobacter aerogenes. Format: cell-based. Here is the method: as §1
The test system of data set [5] is Salmonella heidelberg. Briefly: in vitro antibiotic activity by the Gradient Plate method, Salmonella. It is filed as cell-based. Conditions: Salmonella enterica, read-out: Minimum Inhibitory Concentration vs. Salmonella heidelberg. On the procedure: as §1
Data set [6] deals with Pseudomonas aeruginosa. In words: in vitro antibiotic activity by the Gradient Plate method, Pseudomonas. Format: cell-based. The settings on record: read-out: Minimum Inhibitory Concentration vs. Pseudomonas aeruginosa. Here is the method: as §1
Data set [7] has as its system Serratia marcescens. Briefly: in vitro antibiotic activity by the Gradient Plate method, Serratia. Format: cell-based. The settings on record: read-out: Minimum Inhibitory Concentration vs. Serratia marcescens. On the procedure: as §1
Data set [8] is described as follows: Titration 66 percent DMF. Conditions: 66% dmf. It is filed as physicochemical. The text has this:
IR (KBr): 1770 cm^-1 (β-lactam carbonyl) U.V. (methanol): γ max 278 (ε17,921) Titration 66 percent DMF: pKa 4.98.

As for `CN(C(=O)C=Cc1ccccc1)C(=O)NC(C(=O)NC1C(=O)N2C(C(=O)O)=C(COC(N)=O)CSC12)c1ccccc1` (stereo not drawn), the MIC in data set [1] was found to be 1 µg/mL (≈ 1.68 µM); in data set [2], 5.5 µg/mL (≈ 9.27 µM); in data set [3] it was 0.3 µg/mL (≈ 0.505 µM); in data set [4], 8 µg/mL (≈ 13.5 µM); in data set [5], 6.5 µg/mL (≈ 10.9 µM); in data set [6] it was 21.8 µg/mL (≈ 36.7 µM). For the same molecule, the MIC in data set [7] stood at 8 µg/mL (≈ 13.5 µM).

As for `CNC(=O)NC(=O)NC(C(=O)NC1C(=O)N2C(C(=O)O)=C(COC(N)=O)CSC12)c1ccc(O)cc1` (stereo not drawn), the MIC in data set [1] was 17.3 µg/mL (≈ 33.1 µM); in data set [2], 27.2 µg/mL (≈ 52.1 µM); in data set [3], 100 µg/mL (≈ 191 µM); in data set [4] it was 18.5 µg/mL (≈ 35.4 µM); in data set [5] it was 12.5 µg/mL (≈ 23.9 µM); in data set [6], 33.3 µg/mL (≈ 63.7 µM). The MIC in data set [7] was above 200 µg/mL.

As for `CNC(=O)N(C)C(=O)NC(C(=O)NC1C(=O)N2C(C(=O)O)=C(COC(N)=O)CSC12)c1ccc(O)cc1` (stereo not drawn), the MIC in data set [1] turned out to be 4.5 µg/mL (≈ 8.39 µM); in data set [2], 10 µg/mL (≈ 18.6 µM); in data set [3] it was 10 µg/mL (≈ 18.6 µM); in data set [4], 5.5 µg/mL (≈ 10.3 µM); in data set [5], 5 µg/mL (≈ 9.32 µM); in data set [6] it was 13.5 µg/mL (≈ 25.2 µM). For the same molecule, the MIC in data set [7] was found to be 160 µg/mL (≈ 298 µM).

With `CNC(=O)N(C)C(=O)NC(C(=O)NC1C(=O)N2C(C(=O)O)=C(COC(N)=O)CSC12)c1ccccc1` (stereo not drawn), the MIC in data set [1] was 7 µg/mL (≈ 13.4 µM); in data set [2], 17.8 µg/mL (≈ 34.2 µM); in data set [3], 7.8 µg/mL (≈ 15 µM); in data set [4], 19.5 µg/mL (≈ 37.5 µM); in data set [5] it was 8.5 µg/mL (≈ 16.3 µM); in data set [6] it was 18.3 µg/mL (≈ 35.2 µM). In addition, the MIC in data set [7] came to 67.5 µg/mL (≈ 130 µM).

Take `CNC(=O)NC(=O)NC(C(=O)NC1C(=O)N2C(C(=O)O)=C(COC(N)=O)CSC12)c1ccccc1` (stereo not drawn): the MIC in data set [1] stood at 21.5 µg/mL (≈ 42.4 µM); in data set [2], 51.3 µg/mL (≈ 101 µM); in data set [3], 35 µg/mL (≈ 69.1 µM); in data set [4], 65 µg/mL (≈ 128 µM); in data set [5], 30 µg/mL (≈ 59.2 µM); in data set [6], 22.8 µg/mL (≈ 45 µM). The MIC in data set [7] was above 200 µg/mL.

Consider `CS(=O)(=O)N1CCN(C(=O)NC(C(=O)NC2C(=O)N3C(C(=O)O)=C(COC(N)=O)CSC23)c2ccc(O)cc2)C1=O` (stereo not drawn), for which the MIC in data set [1] amounted to 4.3 µg/mL (≈ 7.02 µM); in data set [2], 10 µg/mL (≈ 16.3 µM); in data set [3], 5.5 µg/mL (≈ 8.98 µM); in data set [4] it was 10 µg/mL (≈ 16.3 µM); in data set [5], 4.8 µg/mL (≈ 7.84 µM); in data set [6], 47.5 µg/mL (≈ 77.5 µM). Further, the MIC in data set [7] was found to be 100 µg/mL (≈ 163 µM).

Turning to `NC(=O)OCC1=C(C(=O)O)N2C(=O)C(NC(=O)C(NC(=O)NC(=O)c3ccco3)c3ccc(O)cc3)C2SC1` (stereo not drawn), the MIC amounted to 12.5 µg/mL (≈ 22.3 µM) in data set [1]; 17.2 µg/mL (≈ 30.7 µM) in data set [2]; 16 µg/mL (≈ 28.6 µM) in data set [3]; 17.2 µg/mL (≈ 30.7 µM) in data set [4]; 16 µg/mL (≈ 28.6 µM) in data set [5]; 10 µg/mL (≈ 17.9 µM) in data set [6]. Also, the MIC in data set [7] is 120 µg/mL (≈ 214 µM).

As to `CNC(=O)OCC1=C(C(=O)O)N2C(=O)C(NC(=O)C(NC(=O)N(C)C(=O)NC)c3ccccc3)C2SC1` (stereo not drawn) [7-[α-(3-Methylcarbamoyl-3-methyl-1-ureido)-α-phenylacetamido]-3-N-methylcarbamoyloxymethyl-3-cephem-4-carboxylic acid], the MIC stood at 5.5 µg/mL (≈ 10.3 µM) in data set [1]; 15.5 µg/mL (≈ 29 µM) in data set [2]; 7 µg/mL (≈ 13.1 µM) in data set [3]; 19.5 µg/mL (≈ 36.5 µM) in data set [4]; 8.5 µg/mL (≈ 15.9 µM) in data set [5]; 30 µg/mL (≈ 56.1 µM) in data set [6]. The MIC in data set [7] was found to be 42.5 µg/mL (≈ 79.5 µM).

The molecule `CN(C(=O)C=Cc1ccccc1)C(=O)N[C@@H](C(=O)NC1C(=O)N2C(C(=O)O)=C(COC(N)=O)CSC12)c1ccccc1` (stereo partly drawn) [Example 8, 7-[D-α-(3-Cinnamoyl-3-methyl-1-ureido)-α-phenylacetamido]-3-carbamoyloxymethyl-3-cephem-4-carboxylic acid] gave a pKa in data set [8] of 4.98.

Values taken from patent publication US4061630A, “7-Substituted-ureido-3-carbamoyloxymethyl cephalosporin antibiotics” (Eli Lilly and Company, priority 1976, dated 1977).
